In patent US20260028326A1, “COMPOUND BASED ON ISOINDOLINE-SUBSTITUTED GLUTARIMIDE BACKBONE AND USE THEREOF” (GLUETACS THERAPEUTICS (SHANGHAI) CO., LTD., priority 2022, published 2026):

target: human Cereblon WT GST-tagged protein (Homo sapiens (Human), UniProt Q96SW2); assay: CRBN-binding affinity, HTRF (CEREBLON BINDING kit)
Procedure: The CEREBLON BINDING kits (specification: 10,000 tests; product number: Catalog #64BDCRBNPEH; CISBIO company) was used to determine the CRBN binding ability of the compounds to be tested through a HTRF method (homogeneous time-resolved fluorescence). The specific methods are as follows: • 1. […] Then, 2.5 μL of human Cereblon WT GST-tagged protein solution was added to each well. Finally, 5 μL of the thoroughly mixed Thalidomide-Re reagent and GST Eu antibody working solution were added to each of the aforementioned wells. […] The blank control wells were sequentially added with 2.5 μL of diluent #9 (1×) solution, 2.5 μL of PROTAC binding buffer, and 5 μL of thoroughly mixed Thalidomide-Re reagent and GST Eu antibody working solution. • 4.
The corresponding CRBN binding inhibition rate was calculated using the following method: […]

Sequence of human Cereblon WT GST-tagged protein (Q96SW2 whole entry): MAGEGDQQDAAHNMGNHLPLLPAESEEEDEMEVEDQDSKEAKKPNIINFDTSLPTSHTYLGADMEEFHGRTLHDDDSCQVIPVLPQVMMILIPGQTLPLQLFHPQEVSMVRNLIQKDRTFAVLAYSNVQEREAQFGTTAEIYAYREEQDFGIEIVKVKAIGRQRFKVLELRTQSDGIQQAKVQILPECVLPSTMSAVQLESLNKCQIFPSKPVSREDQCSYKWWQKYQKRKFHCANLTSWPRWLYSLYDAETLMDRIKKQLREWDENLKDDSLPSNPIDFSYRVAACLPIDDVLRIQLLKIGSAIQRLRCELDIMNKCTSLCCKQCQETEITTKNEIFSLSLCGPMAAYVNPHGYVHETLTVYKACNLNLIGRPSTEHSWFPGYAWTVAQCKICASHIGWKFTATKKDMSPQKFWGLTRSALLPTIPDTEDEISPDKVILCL

Structure (SMILES) | IC50
CC1(C)CCC(CN2C3CC2CN(Cc2cc(F)c4c(c2)CN(C2CCC(=O)NC2=O)C4=O)C3)=C(c2ccc(Cl)cc2)C1 (stereo not shown) [GT-05531, 3-(5-((6-((4′-chloro-5,5-dimethyl-3,4,5,6-tetrahydro-[1,1′-biphenyl]-2-yl)methyl)-3,6-diazabicyclo[3.1.1]heptan-3-yl)methyl)-7-fluoro-1-oxoisoindolin-2-yl)piperidine-2,6-dione] | 0.8 µM
CC1(C)CCC(CN2C3CCC2CN(Cc2ccc4c(c2F)CN(C2CCC(=O)NC2=O)C4=O)C3)=C(c2ccc(Cl)cc2)C1 (stereo not shown) [GT-05534, 3-(5-((8-((4′-chloro-5,5-dimethyl-3,4,5,6-tetrahydro-[1,1′-biphenyl]-2-yl)methyl)-3,8-diazabicyclo[3.2.1]octan-3-yl)methyl)-4-fluoro-1-oxoisoindolin-2-yl)piperidine-2,6-dione] | 1.17 µM
CC1(C)CCC(CN2C3CC2CN(C(=O)c2ccc4c(c2)CN(C2CCC(=O)NC2=O)C4=O)C3)=C(c2ccc(Cl)cc2)C1 (stereo not shown) [GT-05457, 3-(5-(6-((4′-chloro-5,5-dimethyl-3,4,5,6-tetrahydro-[1,1′-biphenyl]-2-yl)methyl)-3,6-diazabicyclo[3.1.1]heptane-3-carbonyl)-1-oxoisoindolin-2-yl)piperidine-2,6-dione] | 1.26 µM
CC1(C)CCC(C(=O)N2CC3CCC(C2)N3C(=O)c2ccc3c(c2)CN(C2CCC(=O)NC2=O)C3=O)=C(c2ccc(Cl)cc2)C1 (stereo not shown) [GT-05539, 3-(5-(3-(4′-chloro-5,5-dimethyl-3,4,5,6-tetrahydro-[1,1′-biphenyl]-2-carbonyl)-3,8-diazabicyclo[3.2.1]octane-8-carbonyl)-1-oxoisoindolin-2-yl)piperidine-2,6-dione] | 1.28 µM
O=C1CCC(N2Cc3ccc(CN4C5CC4CN(C(=O)C4=C(c6ccc(F)cc6)CCCC4)C5)cc3C2=O)C(=O)N1 (stereo not shown) [GT-05479, 3-(6-((3-(4′-fluoro-3,4,5,6-tetrahydro-[1,1′-biphenyl]-2-carbonyl)-3,6-diazabicyclo[3.1.1]heptan-6-yl)methyl)-1-oxoisoindolin-2-yl)piperidine-2,6-dione] | 0.72 µM
O=C1CCC(N2Cc3cc(CN4CCN(C(=O)c5cnc(-c6ccccc6)cn5)CC4)ccc3C2=O)C(=O)N1 (stereo not shown) [GT-05635, 3-(1-oxo-5-((4-(5-phenylpyrazine-2-carbonyl)piperazin-1-yl)methyl)isoindolin-2-yl)piperidine-2,6-dione] | 1 µM
O=C1CCC(N2Cc3cc(CN4C5CC4CN(C(=O)C4=C(c6ccc(F)cc6)CCCC4)C5)ccc3C2=O)C(=O)N1 (stereo not shown) [GT-04169, 3-(5-((3-(4′-fluoro-3,4,5,6-tetrahydro-[1,1′-biphenyl]-2-carbonyl)-3,6-diazabicyclo[3.1.1]heptan-6-yl)methyl)-1-oxoisoindolin-2-yl)piperidine-2,6-dione] | 0.85 µM
O=C1CCC(N2Cc3cc(CN4CC5CC(C4)N5Cc4ccccc4-c4ccc(Cl)cc4)ccc3C2=O)C(=O)N1 (stereo not shown) [GT-05704, 3-(5-((6-((4′-chloro-[1,1′-biphenyl]-2-yl)methyl)-3,6-diazabicyclo[3.1.1]heptan-3-yl)methyl)-1-oxoisoindolin-2-yl)piperidine-2,6-dione] | 0.68 µM
CC1(C)CCC(CN2CC(=Cc3ccc4c(c3)CN(C3CCC(=O)NC3=O)C4=O)C2)=C(c2ccc(F)cc2)C1 (stereo not shown) [GT-05483, 3-(5-((1-((4′-fluoro-5,5-dimethyl-3,4,5,6-tetrahydro-[1,1′-biphenyl]-2-yl)methyl)azetidin-3-ylidene)methyl)-1-oxoisoindolin-2-yl)piperidine-2,6-dione] | 0.51 µM
O=C1CCC(N2Cc3c(ccc(CN4C5CC4CN(C(=O)c4ccccc4-c4ccc(Cl)cc4)C5)c3F)C2=O)C(=O)N1 (stereo not shown) [GT-05666, 3-(5-((3-(4′-chloro-[1,1′-biphenyl]-2-carbonyl)-3,6-diazabicyclo[3.1.1]heptan-6-yl)methyl)-4-fluoro-1-oxoisoindolin-2-yl)piperidine-2,6-dione] | 0.69 µM
O=C1CCC(N2Cc3cc(CN4CCN(C(=O)C5=C(c6ccc(F)cc6)CCCC5)CC4)cc(F)c3C2=O)C(=O)N1 (stereo not shown) [GT-05474, 3-(7-fluoro-5-((4-(4′-fluoro-3,4,5,6-tetrahydro-[1,1′-biphenyl]-2-carbonyl)piperazin-1-yl)methyl)-1-oxoisoindolin-2-yl)piperidine-2,6-dione] | 1.17 µM
O=C1CCC(N2Cc3c(CN4CCN(CC5=C(c6ccc(F)cc6)CCCC5)CC4)cccc3C2=O)C(=O)N1 (stereo not shown) [GT-05861, 3-(4-((4-((4′-fluoro-3,4,5,6-tetrahydro-[1,1′-biphenyl]-2-yl)methyl)piperazin-1-yl)methyl)-1-oxoisoindolin-2-yl)piperidine-2,6-dione] | 1.29 µM
CC1(C)CCC(CN2CCC(Cc3ccc4c(c3)CN(C3CCC(=O)NC3=O)C4=O)CC2)=C(c2ccc(Cl)cc2)C1 (stereo not shown) [GT-03368, 3-(5-((1-((4′-chloro-5,5-dimethyl-3,4,5,6-tetrahydro-[1,1′-biphenyl]-2-yl)methyl)piperidin-4-yl)methyl)-1-oxoisoindolin-2-yl)piperidine-2,6-dione] | 1.38 µM
CC1(C)CCC(CN2CC(O)(C(O)c3ccc4c(c3)CN(C3CCC(=O)NC3=O)C4=O)C2)=C(c2ccc(F)cc2)C1 (stereo not shown) [GT-05499, 3-(5-((1-((4′-fluoro-5,5-dimethyl-3,4,5,6-tetrahydro-[1,1′-biphenyl]-2-yl)methyl)-3-hydroxyazetidin-3-yl)(hydroxy)methyl)-1-oxoisoindolin-2-yl)piperidine-2,6-dione] | 0.67 µM
CC1(C)CCC(CN2CC3CC(C2)N3C(=O)c2ccc3c(c2)CN(C2CCC(=O)NC2=O)C3=O)=C(c2ccc(Cl)cc2)C1 (stereo not shown) [GT-05440, 3-(5-(3-((4′-chloro-5,5-dimethyl-3,4,5,6-tetrahydro-[1,1′-biphenyl]-2-yl)methyl)-3,6-diazabicyclo[3.1.1]heptane-6-carbonyl)-1-oxoisoindolin-2-yl)piperidine-2,6-dione] | 0.94 µM
O=C1CCC(N2Cc3cc(CCN4CCN(Cc5ccccc5-c5ccc(Cl)cc5)CC4)ccc3C2=O)C(=O)N1 (stereo not shown) [GT-05876, 3-(5-(2-(4-((4′-chloro-[1,1′-biphenyl]-2-yl)methyl)piperazin-1-yl)ethyl)-1-oxoisoindolin-2-yl)piperidine-2,6-dione] | 0.12 µM
O=C1CCC(N2Cc3cc(CN4CCCN(Cc5ccccc5-c5ccc(Cl)cc5)CC4)ccc3C2=O)C(=O)N1 (stereo not shown) [GT-05611, 3-(5-((4-((4′-chloro-[1,1′-biphenyl]-2-yl)methyl)-1,4-diazepan-1-yl)methyl)-1-oxoisoindolin-2-yl)piperidine-2,6-dione] | 0.63 µM
CC1(C)CCC(CN2C3CCC2CN(C(=O)c2ccc4c(c2)CN(C2CCC(=O)NC2=O)C4=O)C3)=C(c2ccc(Cl)cc2)C1 (stereo not shown) [GT-05446, 3-(5-(8-((4′-chloro-5,5-dimethyl-3,4,5,6-tetrahydro-[1,1′-biphenyl]-2-yl)methyl)-3,8-diazabicyclo[3.2.1]octane-3-carbonyl)-1-oxoisoindolin-2-yl)piperidine-2,6-dione] | 1.87 µM
CC1(C)CCC(C(=O)N2CC3CCC(C2)N3Cc2ccc3c(c2)CN(C2CCC(=O)NC2=O)C3=O)=C(c2ccc(F)cc2)C1 (stereo not shown) [GT-05516, 3-(5-((3-(4′-fluoro-5,5-dimethyl-3,4,5,6-tetrahydro-[1,1′-biphenyl]-2-carbonyl)-3,8-diazabicyclo[3.2.1]octan-8-yl)methyl)-1-oxoisoindolin-2-yl)piperidine-2,6-dione] | 0.6 µM
CC1(C)CCC(C(=O)N2CC3CC(C2)N3Cc2ccc3c(c2)CN(C2CCC(=O)NC2=O)C3=O)=C(c2ccc(F)cc2)C1 (stereo not shown) [GT-05514, 3-(5-((3-(4′-fluoro-5,5-dimethyl-3,4,5,6-tetrahydro-[1,1′-biphenyl]-2-carbonyl)-3,6-diazabicyclo[3.1.1]heptan-6-yl)methyl)-1-oxoisoindolin-2-yl)piperidine-2,6-dione] | 0.74 µM
CC1(C)CCC(CN2CC3CC(C2)N3Cc2ccc3c(c2)CN(C2CCC(=O)NC2=O)C3=O)=C(c2ccc(Cl)cc2)C1 (stereo not shown) [GT-03492, 3-(5-((3-((4′-chloro-5,5-dimethyl-3,4,5,6-tetrahydro-[1,1′-biphenyl]-2-yl)methyl)-3,6-diazabicyclo[3.1.1]heptan-6-yl)methyl)-1-oxoisoindolin-2-yl)piperidine-2,6-dione] | 0.52 µM
CC1(C)CCC(CN2CCN(CCc3ccc4c(c3)CN(C3CCC(=O)NC3=O)C4=O)CC2)=C(c2ccc(Cl)cc2)C1 (stereo not shown) [GT-05361, 3-(5-(2-(4-((4′-chloro-5,5-dimethyl-3,4,5,6-tetrahydro-[1,1′-biphenyl]-2-yl)methyl)piperazin-1-yl)ethyl)-1-oxoisoindolin-2-yl)piperidine-2,6-dione] | 0.37 µM
CC1(C)CCC(CN2CCN(CCCc3ccc4c(c3)CN(C3CCC(=O)NC3=O)C4=O)CC2)=C(c2ccc(Cl)cc2)C1 (stereo not shown) [GT-05362, 3-(5-(3-(4-((4′-chloro-5,5-dimethyl-3,4,5,6-tetrahydro-[1,1′-biphenyl]-2-yl)methyl)piperazin-1-yl)propyl)-1-oxoisoindolin-2-yl)piperidine-2,6-dione] | 1.26 µM
CC1(C)CCC(CN2CCN(C(=O)c3ccc4c(c3)CN(C3CCC(=O)NC3=O)C4=O)CC2)=C(c2ccc(F)cc2)C1 (stereo not shown) [GT-05614, 3-(5-(4-((4′-fluoro-5,5-dimethyl-3,4,5,6-tetrahydro-[1,1′-biphenyl]-2-yl)methyl)piperazine-1-carbonyl)-1-oxoisoindolin-2-yl)piperidine-2,6-dione] | 1.41 µM
O=C1CCC(N2Cc3ccc(CN4CCN(Cc5ccccc5-c5ccc(F)cc5)CC4)cc3C2=O)C(=O)N1 (stereo not shown) [GT-05606, 3-(6-((4-((4′-fluoro-[1,1′-biphenyl]-2-yl)methyl)piperazin-1-yl)methyl)-1-oxoisoindolin-2-yl)piperidine-2,6-dione] | 1.18 µM
